Results from patent publication US5378730A, “Permeation enhancer comprising ethanol and monoglycerides” (priority 1992, dated 1995).

Assay type: in vitro ADME, human
Method: The optimum range of water in a permeation-enhancing mixture when used with the drug sodium piroxicam, where the ratio of Myverol 99K monoglyceride to ethanol is 40 to 55.4 in the mixture, was determined as follows. Various ethanol/Myverol 18-99K/water donor compositions, in the weight ratios listed in Table C, were tested with sodium piroxicam to measure their effect upon the drug flux across human cadaver epidermis at 35° C. The ratio of ethanol to monoglyceride was initially 55.4 to 40, to which varying amounts of water were added. All donor compositions were saturated with the drug. Test data were obtained using a 1.13 cm^2 wet-wet horizontal flux cell with 0.2 ml donor solution and 20 ml receptor solutions (pH 7.4 phosphate buffer, 0.05 M).

optimum range of water content in the permeation-enhancing mixture: 23-33 wt %
SMILES: CN1C(C(=O)Nc2ccccn2)=C(O)c2ccccc2S1(=O)=O [sodium piroxicam]
